# Data from patent US20190314379A1, “METHODS OF USING CANNABINOID CB2 RECEPTOR AGONIST COMPOSITIONS TO SUPPRESS AND PREVENT OPIOID TOLERANCE AND WITHDRAWAL IN A SUBJECT” (Indiana University Research and Technology Corporation, priority 2018, published 2019).
# Entries after “also recorded” stand apart in the source; their conditions may differ.
# How the values were obtained:
# [1] = target: T1, mouse CB2 receptors (Mus musculus, UniProt P47936); experiment: Forskolin-stimulated cAMP accumulation (cyclase), HEK mCB2; format: cell-based; conditions: for Emax: read-out: Cyclase Emax
# T1 construct: expressed in transfected cells
# T1 sequence (P47936 whole entry): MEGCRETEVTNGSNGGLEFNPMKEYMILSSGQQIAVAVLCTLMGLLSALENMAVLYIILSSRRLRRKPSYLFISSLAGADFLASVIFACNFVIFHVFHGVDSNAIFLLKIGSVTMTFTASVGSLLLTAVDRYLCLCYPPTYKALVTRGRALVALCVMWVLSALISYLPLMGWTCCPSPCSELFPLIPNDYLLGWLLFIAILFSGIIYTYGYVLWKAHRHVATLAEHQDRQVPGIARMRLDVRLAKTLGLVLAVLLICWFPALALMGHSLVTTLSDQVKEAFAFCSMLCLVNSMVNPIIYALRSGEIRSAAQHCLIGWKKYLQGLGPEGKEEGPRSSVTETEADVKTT
# [2] = target: T1, mouse CB2 receptors; experiment: Phosphorylated ERK1/2 detection, HEK mCB2; format: cell-based; conditions: for Emax: read-out: pERK1/2 Emax
# [3] = target: T1, mouse CB2 receptors; experiment: Myo-inositol phosphate-1 (IP1) accumulation, HEK mCB2; format: cell-based; conditions: via mouse CB2
# [4] = system: paclitaxel-induced mechanical allodynia; experiment: Paclitaxel-induced mechanical allodynia (electronic von Frey); format: in vivo, mouse; conditions: for mechanical allodynia, chronic phase 1 treatment: 3 mg/kg per day i.p.×12 days
# Procedure: In all studies, the experimenter was blinded to the treatment condition, and mice were randomly assigned to experimental conditions. Paclitaxel (4 mg/kg i.p.) was administered four times on alternate days (cumulative dose, 16 mg/kg i.p.) to induce neuropathic pain as described previously by our group (Deng et al., 2015). Control mice received an equal volume of cremophor-vehicle. Development of paclitaxel-induced allodynia was assessed on day 0, 4, 7, 11, and 14.
# Effects of pharmacologic manipulations were assessed at 30 minutes after drug administration during the maintenance phase of paclitaxel-induced neuropathy (i.e., beginning day 18-20 after initial paclitaxel injection).
# In experiments 2 and 3, pharmacologic manipulations were performed once daily for 12 consecutive days in each of the two phases of chronic treatment. Four days separated phase 1 and phase 2 chronic dosing in all studies comprising two phases of chronic dosing. Experiments 2 and 3 were performed concurrently using overlapping cohorts that were tested with a single vehicle (phase 1), vehicle (phase 2) group.
# We then assessed the antiallodynic efficacy of chronic systemic administration of vehicle or morphine (10 mg/kg per day i.p.×12 days) administered during phase 2 in the same animals. Responsiveness to mechanical and cold stimulation was evaluated on treatment days 1, 4, 8, and 12 during phase 1 and on treatment days 16, 19, 23, and 27 during phase 2 (i.e., phase 2 started on day 16).
# In experiment 4, we evaluated the impact of coadministration of morphine (10 mg/kg i.p.×12 days) with a submaximal dose of LY 2828360 (0.1 mg/kg per day i.p.×12 days) in WT and CB2 KO mice.
# Paw withdrawal thresholds (grams) to mechanical stimulation were measured in duplicate for each paw using an electronic von Frey anesthesiometer supplied with a 90-g probe (model Alemo 2390-5; IITC, Woodland Hills, Calif.) as described previously. Mice were placed on an elevated metal mesh table and allowed to habituate under individual, inverted plastic cages to the testing platform for at least 20 minutes until exploratory behavior had ceased. Alter the habituation period, a force was applied to the midplantar region of the hind paw with a semiflexible tip connected to the anesthesiometer. Mechanical stimulation was terminated when the animal withdrew its paw, and the value of the applied force was recorded in grams. Mechanical paw withdrawal thresholds were obtained in duplicate for each paw and are reported as the mean of duplicate determinations from each animal, averaged across animals, for each group.
# [5] = system: joint pain induced by intra-articular monoiodoacetic acid; conditions: 0.3 mg/kg p.o.; cited from earlier work
# [6] = system: osteoarthritic knee pain; conditions: cited from earlier work
# [7] = WT mice, 3 mg/kg per day i.p.×12 days after phase 1 morphine
smiles,measurement,setting,value
"Cc1nc(N2CCN(C)CC2)c2nc(-c3ccccc3Cl)n(C3CCOCC3)c2n1 [LY2828360, 8-(2-chlorophenyl)-2-methyl-6-(4-methylpiperazin-1-yl)-9-(tetrahydro-2H-pyran-4-yl)-9H-purine]",forskolin-stimulated cAMP after PTX treatment,"[1]; mCB2, 1 μM, PTX 300 ng/ml overnight",failed to affect cyclase levels at all time points
same,time of efficacious inhibition of forskolin-stimulated adenylyl cyclase,"[1]; mCB2, 1 μM, time course",30 min
same,inhibition of forskolin-stimulated cAMP accumulation in presence of SR144528,"[1]; mCB2, 30-minute incubation, 1 μM SR144528 (SR2)",completely blocked
same,"inhibition of forskolin-stimulated cAMP accumulation, concentration response","[1]; mCB2, 5 minutes",had no effect
same,"inhibition of forskolin-stimulated cAMP accumulation, concentration response","[1]; mCB2, 30 minutes","potent, efficacious, and CB2 receptor mediated"
same,Emax,"[1]; mouse CB2, 05 mins incubation",18.9%
same,EC50,"[1]; mouse CB2, 30 mins incubation, read-out: Cyclase EC50",13.6 nM
same,Emax,"[1]; mouse CB2, 30 mins incubation",53.4%
same,ERK1/2 phosphorylation time course,"[2]; mCB2, 1 μM","had no effect at 5- and 10-minute time points but increased ERK1/2 phosphorylation at 20, 30, and 40 minutes"
same,ERK1/2 phosphorylation after PTX treatment,"[2]; mCB2, 1 μM, PTX",abolished the 20-minute phosphorylation of ERK1/2
same,"ERK1/2 phosphorylation, concentration response","[2]; mCB2, 5 minutes",failed to affect pERK1/2 levels
same,"ERK1/2 phosphorylation, concentration response","[2]; mCB2, 20 minutes",increased ERK1/2 phosphorylation
same,effect on ERK1/2 phosphorylation in presence of SR144528,"[2]; mCB2, 20 minutes, SR144528 1 μM",blocked
same,Emax,"[2]; mouse CB2, 05 mins incubation",4.1%
same,EC50,"[2]; mouse CB2, 20 mins incubation, read-out: pERK1/2 EC50",339 nM
same,Emax,"[2]; mouse CB2, 20 mins incubation",43.6%
same,IP1 accumulation,[3],did not affect IP1 accumulation
same,time for responsiveness to mechanical stimulation to return to baseline,[4]; 3 mg/kg i.p. acute,1 days
same,"mechanical allodynia, chronic phase 1 treatment",[4]; CB2KO mice,failed to suppress
same,"mechanical responsiveness, phase 2 treatment of morphine-tolerant mice","[4]; CB2KO mice, 3 mg/kg per day i.p.×12 days after phase 1 morphine",did not alter responsiveness to mechanical or cold stimulation
same,"mechanical allodynia, coadministration with morphine","[4]; CB2KO mice, LY2828360 0.1 mg/kg with morphine 10 mg/kg per day×12 days",sustained antiallodynic efficacy was absent
same,"development of tolerance to antiallodynic effect of phase 2 morphine, mechanical","[4]; CB2KO mice, LY2828360 phase 1, morphine phase 2",did not block the development of morphine tolerance
same,"paclitaxel-induced mechanical allodynia, high dose","[4]; WT mice, 3 mg/kg i.p. acute",fully reversed paclitaxel-induced allodynia and normalized responses to pre-paclitaxel baseline levels
same,"mechanical allodynia, chronic phase 1 treatment",[4]; WT mice,markedly suppressed paclitaxel-induced mechanical and cold allodynia throughout the observation interval
same,"mechanical allodynia, phase 2 treatment of morphine-tolerant mice",[4]; [7],fully reversed paclitaxel-induced allodynia and normalized responsiveness to pre-paclitaxel baseline levels
same,"tolerance to phase 2 treatment, mechanical",[4]; [7],tolerance did not develop
same,"mechanical allodynia, coadministration with morphine","[4]; WT mice, LY2828360 0.1 mg/kg per day i.p.×12 days with morphine 10 mg/kg per day×12 days",fully reversed paclitaxel-induced mechanical allodynia and normalized responses to pre-paclitaxel baseline levels throughout the observation period
same,"development of morphine tolerance under coadministration, mechanical","[4]; WT mice, LY2828360 0.1 mg/kg with morphine 10 mg/kg per day×12 days",morphine tolerance failed to develop
same,"development of tolerance to antiallodynic effect of phase 2 morphine, mechanical","[4]; WT mice, LY2828360 3 mg/kg per day×12 days phase 1, morphine 10 mg/kg×12 days phase 2",prevented the development of morphine tolerance
same,"paclitaxel-induced mechanical allodynia, acute dose response","[4]; WT mice, acute systemic (i.p.), dose-dependent",suppressed
same,mechanical allodynia at low doses vs cremophor-vehicle controls,"[4]; WT mice, doses lower than 0.3 mg/kg i.p.",neuropathic pain was prominent
same,"stability of antiallodynic efficacy (tolerance), mechanical","[4]; WT mice, phase 1, 3 mg/kg per day i.p.×12 days",stable throughout phase 1 treatment
same,efficacy compared with diclofenac,[5],equivalent efficacy
same,"reversal of pain, incapacitance testing",[5],dose-related reversal of pain
same,risks or discomforts in human subjects,"[6]; osteoarthritic pain, up to 80 mg for 4 weeks",No specific risks or discomforts
same,primary endpoint vs placebo / relief of osteoarthritis pain,"[6]; patients with osteoarthritic knee pain, phase 2",ineffective in relieving pain associated with osteoarthritis; also recorded: did not differ
